target: ER (Homo sapiens (Human), UniProt P03372); assay: Western blot analysis (Compounds B1-B278); format: cell-based; conditions: ER degradation by traditional Western blot; DC50 classes
Procedure, shortened: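 Relative target-protein levels come from densitometry of immunoblots, normalized to GAPDH. Lysates from treated cells were prepared in RIPA buffer (pH 7.6) containing protease inhibitors, and equal protein amounts, checked by BCA, were separated on 10% gels and blotted onto PVDF.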

ER, sequence (P03372 whole entry): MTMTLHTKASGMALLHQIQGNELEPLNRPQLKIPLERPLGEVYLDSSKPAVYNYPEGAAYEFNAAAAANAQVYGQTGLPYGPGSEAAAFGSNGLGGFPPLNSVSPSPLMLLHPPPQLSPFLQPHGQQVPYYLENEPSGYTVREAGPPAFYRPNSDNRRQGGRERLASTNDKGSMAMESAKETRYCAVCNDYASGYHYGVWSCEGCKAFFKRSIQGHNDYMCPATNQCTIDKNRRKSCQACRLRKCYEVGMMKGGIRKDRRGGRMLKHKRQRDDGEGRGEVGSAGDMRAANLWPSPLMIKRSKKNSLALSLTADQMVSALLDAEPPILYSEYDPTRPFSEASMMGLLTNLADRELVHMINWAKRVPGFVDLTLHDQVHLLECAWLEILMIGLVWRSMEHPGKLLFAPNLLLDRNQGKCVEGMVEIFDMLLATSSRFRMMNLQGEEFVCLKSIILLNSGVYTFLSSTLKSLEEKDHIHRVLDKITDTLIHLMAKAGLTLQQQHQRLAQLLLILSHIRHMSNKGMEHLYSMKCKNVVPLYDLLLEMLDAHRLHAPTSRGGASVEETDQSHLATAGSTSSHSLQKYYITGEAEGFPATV

Compound | Traditional Western Degradation Potency
C[C@@H]1Cc2c([nH]c3ccccc23)[C@H](c2c(F)cc(C(=O)N3CCC4(CCC(CN5Cc6cc7c(cc6C5)C(=O)N(C5CCC(=O)NC5=O)C7=O)CC4)CC3)cc2F)N1CC(F)F (stereo partly drawn) [Compound B100, 6-((3-(4-((1S,3R)-2-(2,2-difluoroethyl)-3-methyl-2,3,4,9-tetrahydro-1H-pyrido[3,4-b]indol-1-yl)-3,5-difluorobenzoyl)-3-azaspiro[5.5]undecan-9-yl)methyl)-2-(2,6-dioxopiperidin-3-yl)-6,7-dihydropyrrolo[3,4-f]isoindole-1,3(2H,5H)-dione] | C (“C”: >100 nM)
C[C@@H]1Cc2c([nH]c3ccccc23)[C@@H](c2c(F)cc(CN3CCC4(CCC(CN5Cc6cc7c(cc6C5)C(=O)N(C5CCC(=O)NC5=O)C7=O)CC4)CC3)cc2F)N1CC(F)F (stereo partly drawn) [Compound B101, 6-((3-(4-((1R,3R)-2-(2,2-difluoroethyl)-3-methyl-2,3,4,9-tetrahydro-1H-pyrido[3,4-b]indol-1-yl)-3,5-difluorobenzyl)-3-azaspiro[5.5]undecan-9-yl)methyl)-2-(2,6-dioxopiperidin-3-yl)-6,7-dihydropyrrolo[3,4-f]isoindole-1,3(2H,5H)-dione] | C (“C”: >100 nM)
C[C@@H]1Cc2c([nH]c3ccccc23)[C@H](c2c(F)cc(CN3CCC4(CCC(CN5Cc6cc7c(cc6C5)C(=O)N(C5CCC(=O)NC5=O)C7=O)CC4)CC3)cc2F)N1CC(F)F (stereo partly drawn) [Compound B102, 6-((3-(4-((1S,3R)-2-(2,2-difluoroethyl)-3-methyl-2,3,4,9-tetrahydro-1H-pyrido[3,4-b]indol-1-yl)-3,5-difluorobenzyl)-3-azaspiro[5.5]undecan-9-yl)methyl)-2-(2,6-dioxopiperidin-3-yl)-6,7-dihydropyrrolo[3,4-f]isoindole-1,3(2H,5H)-dione] | C (“C”: >100 nM)
C[C@@H]1Cc2c([nH]c3ccccc23)[C@@H](c2c(F)cc(CN3CCC4(CCC(C(=O)N5Cc6cc7c(cc6C5)C(=O)N(C5CCC(=O)NC5=O)C7=O)CC4)CC3)cc2F)N1CC(F)F (stereo partly drawn) [Compound B103, 6-(3-(4-((1R,3R)-2-(2,2-difluoroethyl)-3-methyl-2,3,4,9-tetrahydro-1H-pyrido[3,4-b]indol-1-yl)-3,5-difluorobenzyl)-3-azaspiro[5.5]undecane-9-carbonyl)-2-(2,6-dioxopiperidin-3-yl)-6,7-dihydropyrrolo[3,4-f]isoindole-1,3(2H,5H)-dione] | C (“C”: >100 nM)
C[C@@H]1Cc2c([nH]c3ccccc23)[C@H](c2c(F)cc(CN3CCC4(CCC(C(=O)N5Cc6cc7c(cc6C5)C(=O)N(C5CCC(=O)NC5=O)C7=O)CC4)CC3)cc2F)N1CC(F)F (stereo partly drawn) [Compound B104, 6-(3-(4-((1S,3R)-2-(2,2-difluoroethyl)-3-methyl-2,3,4,9-tetrahydro-1H-pyrido[3,4-b]indol-1-yl)-3,5-difluorobenzyl)-3-azaspiro[5.5]undecane-9-carbonyl)-2-(2,6-dioxopiperidin-3-yl)-6,7-dihydropyrrolo[3,4-f]isoindole-1,3(2H,5H)-dione] | C (“C”: >100 nM)
C[C@@H]1Cc2c([nH]c3ccccc23)[C@@H](c2c(F)cc(C3CCN(C(=O)[C@H]4CC[C@@H](N5Cc6cc7c(cc6C5)C(=O)N(C5CCC(=O)NC5=O)C7=O)CC4)CC3)cc2F)N1CC(F)F (stereo partly drawn) [Compound B105, 6-((1S,4s)-4-(4-(4-((1R,3R)-2-(2,2-difluoroethyl)-3-methyl-2,3,4,9-tetrahydro-1H-pyrido[3,4-b]indol-1-yl)-3,5-difluorophenyl)piperidine-1-carbonyl)cyclohexyl)-2-(2,6-dioxopiperidin-3-yl)-6,7-dihydropyrrolo[3,4-f]isoindole-1,3(2H,5H)-dione] | B (“B”: 10-100 nM)
C[C@@H]1Cc2c([nH]c3ccccc23)[C@@H](c2c(F)cc(C3CCN(C(=O)[C@H]4CC[C@H](N5Cc6cc7c(cc6C5)C(=O)N(C5CCC(=O)NC5=O)C7=O)CC4)CC3)cc2F)N1CC(F)F (stereo partly drawn) [Compound B106, 6-((1R,4r)-4-(4-(4-((1R,3R)-2-(2,2-difluoroethyl)-3-methyl-2,3,4,9-tetrahydro-1H-pyrido[3,4-b]indol-1-yl)-3,5-difluorophenyl)piperidine-1-carbonyl)cyclohexyl)-2-(2,6-dioxopiperidin-3-yl)-6,7-dihydropyrrolo[3,4-f]isoindole-1,3(2H,5H)-dione] | A (“A”: <10 nM)
COc1cc([C@H]2CC[C@@H](C(=O)N3CCC(N4Cc5cc6c(cc5C4)C(=O)N(C4CCC(=O)NC4=O)C6=O)CC3)CC2)ncc1[C@@H]1c2[nH]c3ccccc3c2C[C@@H](C)N1CC(F)F (stereo partly drawn) [Compound B107, 6-(1-((1S,4s)-4-(5-((1R,3R)-2-(2,2-difluoroethyl)-3-methyl-2,3,4,9-tetrahydro-1H-pyrido[3,4-b]indol-1-yl)-4-methoxypyridin-2-yl)cyclohexane-1-carbonyl)piperidin-4-yl)-2-(2,6-dioxopiperidin-3-yl)-6,7-dihydropyrrolo[3,4-f]isoindole-1,3(2H,5H)-dione] | C (“C”: >100 nM)
COc1cc([C@H]2CC[C@H](C(=O)N3CCC(N4Cc5cc6c(cc5C4)C(=O)N(C4CCC(=O)NC4=O)C6=O)CC3)CC2)ncc1[C@@H]1c2[nH]c3ccccc3c2C[C@@H](C)N1CC(F)F (stereo partly drawn) [Compound B108, 6-(1-((1R,4r)-4-(5-((1R,3R)-2-(2,2-difluoroethyl)-3-methyl-2,3,4,9-tetrahydro-1H-pyrido[3,4-b]indol-1-yl)-4-methoxypyridin-2-yl)cyclohexane-1-carbonyl)piperidin-4-yl)-2-(2,6-dioxopiperidin-3-yl)-6,7-dihydropyrrolo[3,4-f]isoindole-1,3(2H,5H)-dione] | C (“C”: >100 nM)
C[C@@H]1Cc2c([nH]c3ccccc23)[C@@H](c2ncc(C3=CCC(C(=O)N4CCC(N5Cc6cc7c(cc6C5)C(=O)N(C5CCC(=O)NC5=O)C7=O)CC4)CC3)cc2F)N1CC(F)F (stereo partly drawn) [Compound B109, 6-(1-(4-(6-((1S,3R)-2-(2,2-difluoroethyl)-3-methyl-2,3,4,9-tetrahydro-1H-pyrido[3,4-b]indol-1-yl)-5-fluoropyridin-3-yl)cyclohex-3-ene-1-carbonyl)piperidin-4-yl)-2-(2,6-dioxopiperidin-3-yl)-6,7-dihydropyrrolo[3,4-f]isoindole-1,3(2H,5H)-dione] | C (“C”: >100 nM)
C[C@@H]1Cc2c([nH]c3ccccc23)[C@@H](c2c(F)cc(C3CCC(C(=O)N4CCC(N5Cc6cc7c(cc6C5)C(=O)N(C5CCC(=O)NC5=O)C7=O)CC4)CC3)cc2F)N1CC(F)(F)CO (stereo partly drawn) [Compound B110, 6-(1-(4-(4-((1R,3R)-2-(2,2-difluoro-3-hydroxypropyl)-3-methyl-2,3,4,9-tetrahydro-1H-pyrido[3,4-b]indol-1-yl)-3,5-difluorophenyl)cyclohexane-1-carbonyl)piperidin-4-yl)-2-(2,6-dioxopiperidin-3-yl)-6,7-dihydropyrrolo[3,4-f]isoindole-1,3(2H,5H)-dione] | C (“C”: >100 nM)
COc1cc([C@H]2CC[C@H](C(=O)N3CCC(N4Cc5cc6c(cc5C4)C(=O)N(C4CCC(=O)NC4=O)C6=O)CC3)CC2)ccc1[C@@H]1c2[nH]c3ccccc3c2C[C@@H](C)N1CC(F)F (stereo partly drawn) [Compound B111, 6-(1-((1R,4r)-4-(4-((1R,3R)-2-(2,2-difluoroethyl)-3-methyl-2,3,4,9-tetrahydro-1H-pyrido[3,4-b]indol-1-yl)-3-methoxyphenyl)cyclohexane-1-carbonyl)piperidin-4-yl)-2-(2,6-dioxopiperidin-3-yl)-6,7-dihydropyrrolo[3,4-f]isoindole-1,3(2H,5H)-dione] | B (“B”: 10-100 nM)
COc1cc([C@H]2CC[C@@H](C(=O)N3CCC(N4Cc5cc6c(cc5C4)C(=O)N(C4CCC(=O)NC4=O)C6=O)CC3)CC2)ccc1[C@@H]1c2[nH]c3ccccc3c2C[C@@H](C)N1CC(F)F (stereo partly drawn) [Compound B112, 6-(1-((1S,4s)-4-(4-((1R,3R)-2-(2,2-difluoroethyl)-3-methyl-2,3,4,9-tetrahydro-1H-pyrido[3,4-b]indol-1-yl)-3-methoxyphenyl)cyclohexane-1-carbonyl)piperidin-4-yl)-2-(2,6-dioxopiperidin-3-yl)-6,7-dihydropyrrolo[3,4-f]isoindole-1,3(2H,5H)-dione] | C (“C”: >100 nM)
COc1nc(C2CCC(C(=O)N3CCC(N4Cc5cc6c(cc5C4)C(=O)N(C4CCC(=O)NC4=O)C6=O)CC3)CC2)ccc1[C@@H]1c2[nH]c3ccccc3c2C[C@@H](C)N1CC(F)F (stereo partly drawn) [Compound B113, 6-(1-(4-(5-((1R,3R)-2-(2,2-difluoroethyl)-3-methyl-2,3,4,9-tetrahydro-1H-pyrido[3,4-b]indol-1-yl)-6-methoxypyridin-2-yl)cyclohexane-1-carbonyl)piperidin-4-yl)-2-(2,6-dioxopiperidin-3-yl)-6,7-dihydropyrrolo[3,4-f]isoindole-1,3(2H,5H)-dione] | C (“C”: >100 nM)
COc1cc(C2CCC(C(=O)N3CCC(N4Cc5cc6c(cc5C4)C(=O)N(C4CCC(=O)NC4=O)C6=O)CC3)CC2)cnc1[C@@H]1c2[nH]c3ccccc3c2C[C@@H](C)N1CC(F)F (stereo partly drawn) [Compound B115, 6-(1-(4-(6-((1S,3R)-2-(2,2-difluoroethyl)-3-methyl-2,3,4,9-tetrahydro-1H-pyrido[3,4-b]indol-1-yl)-5-methoxypyridin-3-yl)cyclohexane-1-carbonyl)piperidin-4-yl)-2-(2,6-dioxopiperidin-3-yl)-6,7-dihydropyrrolo[3,4-f]isoindole-1,3(2H,5H)-dione] | C (“C”: >100 nM)
C[C@@H]1Cc2c([nH]c3ccccc23)[C@@H](c2cnc(N3CC4(CCC(CN5Cc6cc7c(cc6C5)C(=O)N(C5CCC(=O)NC5=O)C7=O)CC4)C3)nc2)N1CC(C)(C)F (stereo partly drawn) [Compound B184, 2-(2,6-dioxopiperidin-3-yl)-6-((2-(5-((1R,3R)-2-(2-fluoro-2-methylpropyl)-3-methyl-2,3,4,9-tetrahydro-1H-pyrido[3,4-b]indol-1-yl)pyrimidin-2-yl)-2-azaspiro[3.5]nonan-7-yl)methyl) 6,7-dihydropyrrolo[3,4-f]isoindole-1,3(2H,5H)-dione] | C (“C”: >100 nM)

Reference: US20260007681A1, “INDOLE DERIVATIVES AS ESTROGEN RECEPTOR DEGRADERS” (REGENTS OF THE UNIVERSITY OF MICHIGAN, priority 2022, published 2026)
